# Reference: patent US20050054006A1, “Combinatorial fluorescent library based on the styryl scaffold” (New York University, priority 2003, published 2005)
# Test: Fluorescence excitation/emission of the styryl dye library compounds
# Assay type: physicochemical
# Conditions: EX/EM peak no. 1
Compound,EM(nm),EX(nm)
C[n+]1ccc(C=Cc2ccc(Br)cc2)cc1.[I-] [Compound A5],540,375 nm
COc1cc(C=Cc2cc[n+](C)cc2)cc(OC)c1OC.[I-] [Compound A13],550,390 nm
COc1ccc(C=Cc2cc[n+](C)cc2)cc1O.[I-] [Compound A15],510,–
C[n+]1ccc(C=Cc2ccc(O)cc2)cc1.[I-] [Compound A16],510,390-420 nm
CC(=O)Nc1ccc(C=Cc2cc[n+](C)cc2)cc1.[I-] [Compound A18],610,420 nm
C[n+]1ccc(C=Cc2ccc([N+](=O)[O-])cc2)cc1.[I-] [Compound A22],540,400 nm
C[n+]1ccc(C=Cc2ccccc2F)cc1.[I-] [Compound A29],560,400-420 nm
C[n+]1ccc(C=Cc2ccc(F)cc2)cc1.[I-] [Compound A30],590,420-440 nm
C[n+]1ccc(C=Cc2ccc3ccccc3c2)cc1.[I-] [Compound A33],600,360-420 nm
C[n+]1ccc(C=CC=Cc2ccccc2[N+](=O)[O-])cc1.[I-] [Compound A36],700,430 nm
CN(C)c1ccc(C=CC=Cc2cc[n+](C)cc2)cc1.[I-] [Compound A37],580,460-490 nm
COc1cc(OC)c(OC)cc1C=Cc1cc[n+](C)cc1.[I-] [Compound A38],540,410 nm
C[n+]1ccc(C=Cc2ccc3c(c2)OCO3)cc1.[I-] [Compound A39],540,430 nm
Brc1ccc(C=Cc2cc[n+](C34CC5CC(CC(C5)C3)C4)cc2)cc1.[Br-] [Compound B5],570,385 nm
COc1ccccc1C=Cc1cc[n+](C23CC4CC(CC(C4)C2)C3)cc1.[Br-] [Compound B9],500,390 nm
C(=Cc1ccc(OCc2ccccc2)c(OCc2ccccc2)c1)c1cc[n+](C23CC4CC(CC(C4)C2)C3)cc1.[Br-] [Compound B12],530,340-444 nm
COc1ccc(C=Cc2cc[n+](C34CC5CC(CC(C5)C3)C4)cc2)c2ccccc12.[Br-] [Compound B14],550,360-450 nm
CC(=O)Nc1ccc(C=Cc2cc[n+](C34CC5CC(CC(C5)C3)C4)cc2)cc1.[Br-] [Compound B18],580,420 nm
CN(C)c1ccc(C=Cc2cc[n+](C34CC5CC(CC(C5)C3)C4)cc2)cc1.[Br-] [Compound B19],610,380-540 nm
Fc1ccccc1C=Cc1cc[n+](C23CC4CC(CC(C4)C2)C3)cc1.[Br-] [Compound B29],560,400-420 nm

Compound,EM(nm),EX(nm)
Fc1ccc(C=Cc2cc[n+](C34CC5CC(CC(C5)C3)C4)cc2)cc1.[Br-] [Compound B30],590,–
C(=Cc1c2ccccc2cc2ccccc12)c1cc[n+](C23CC4CC(CC(C4)C2)C3)cc1.[Br-] [Compound B34],610,460 nm
COc1cc(C=Cc2cccc[n+]2C)cc(OC)c1OC.[I-] [Compound C13],540,380 nm
COc1ccc(C=Cc2cccc[n+]2C)c2ccccc12.[I-] [Compound C14],530,390 nm
COc1ccc(C=Cc2cccc[n+]2C)cc1O.[I-] [Compound C15],500,390 nm
CN(C)c1ccc(C=Cc2cccc[n+]2C)c2ccccc12.[I-] [Compound C27],620,450 nm
C[n+]1ccccc1C=Cc1cccc2ccccc12.[I-] [Compound C32],550,390 nm
CN(C)c1ccc(C=CC=Cc2cccc[n+]2C)cc1.[I-] [Compound C37],680,520 nm
COc1cc(OC)c(OC)cc1C=Cc1cccc[n+]1C.[I-] [Compound C38],580,420 nm
C[n+]1ccccc1C=Cc1ccc2c(c1)OCO2.[I-] [Compound C39],520,340 nm
C[n+]1ccccc1C=Cc1ccccn1.[I-] [Compound C40],610,390 nm
CCc1ccc(C=Cc2ccc(OCc3ccccc3)c(OCc3ccccc3)c2)[n+](C)c1.[I-] [Compound E12],510,400 nm
CCc1ccc(C=Cc2cc(OC)c(OC)c(OC)c2)[n+](C)c1.[I-] [Compound E13],540,380 nm
CCc1ccc(/C=C/c2c[nH]c3ccccc23)[n+](C)c1.[I-] [Compound E24],510,430 nm
CCc1ccc(/C=C/c2ccc(N(C)C)c3ccccc23)[n+](C)c1.[I-] [Compound E27],620,430 nm
CCc1ccc(C=Cc2cccc3ccccc23)[n+](C)c1.[I-] [Compound E32],560,420 nm
CCc1ccc(C=Cc2cc(OC)c(OC)cc2OC)[n+](C)c1.[I-] [Compound E38],560,430 nm
CCc1ccc(/C=C/c2ccc3c(c2)OCO3)[n+](C)c1.[I-] [Compound E39],500,390-420 (broad) nm
CCc1ccc(C=Cc2ccccn2)[n+](C)c1.[I-] [Compound E40],610,390 nm
COc1ccccc1C=Cc1cc[n+](C)c(Br)c1.[I-] [Compound F9],520,400 nm

Compound,EM(nm),EX(nm)
COc1ccc(/C=C/c2cc[n+](C)c(Br)c2)cc1.[I-] [Compound F10],520,460 nm
C[n+]1ccc(C=Cc2ccc(O)cc2)cc1Br.[I-] [Compound F16],510,410 nm
CN(C)c1ccc(C=Cc2cc[n+](C)c(Br)c2)cc1.[I-] [Compound F19],610,440(broad) nm
CN(C)c1ccc(C=Cc2cc[n+](C)c(Br)c2)c2ccccc12.[I-] [Compound F27],640,460 nm
C[n+]1ccc(C=Cc2cccc3ccccc23)cc1Br.[I-] [Compound F32],530,410 nm
COc1cc(OC)c(OC)cc1C=Cc1cc[n+](C)c(Br)c1.[I-] [Compound F38],540,460 nm
C[n+]1ccc(/C=C/c2ccc3c(c2)OCO3)cc1Br.[I-] [Compound F39],540,400-420 nm
C[n+]1ccc(C=Cc2ccccn2)cc1Br.[I-] [Compound F40],640,540 nm
COc1ccc(C=Cc2cc[n+](C)c3ccccc23)cc1OC.[I-] [Compound G11],600,420-480 nm
COc1cc(C=Cc2cc[n+](C)c3ccccc23)cc(OC)c1OC.[I-] [Compound G13],620,420 nm
COc1ccc(C=Cc2cc[n+](C)c3ccccc23)cc1O.[I-] [Compound G15],560,420-460 nm
C[n+]1ccc(/C=C/c2ccc(O)cc2)c2ccccc21.[I-] [Compound G16],560,430 nm
C[n+]1ccc(/C=C/c2ccc3c(c2)Cc2ccccc2-3)c2ccccc21.[I-] [Compound G28],620,450 nm
C[n+]1ccc(C=Cc2ccccc2F)c2ccccc21.[I-] [Compound G29],560,450 nm
CN(C)c1ccc(/C=C/C=C/c2cc[n+](C)c3ccccc23)cc1.[I-] [Compound G37],670,530 nm
C[n+]1ccc(/C=C/c2ccc3c(c2)OCO3)c2ccccc21.[I-] [Compound G39],590,430 nm
C[n+]1ccc(C=Cc2ccc3ccc4cccc5ccc2c3c45)c2ccccc21.[I-] [Compound G41],660,500 nm
C[n+]1c(/C=C/c2ccccc2)ccc2ccccc21.[I-] [Compound H2],640,480(weak) nm
C[n+]1c(C=Cc2cccc(Br)c2)ccc2ccccc21.[I-] [Compound H4],640,530 nm
